Laboratory results reported in US12257264B2, “Combination therapy for HIV with adenosine derivative and capsid inhibitors” (Brii Biosciences, Inc., priority 2021, dated 2025).
Values joined by “and” are separate entries in the source; they are usually repeats but may differ in a detail not shown here. Equal values may be shown once.

Columns and labels:
[1] = Plasma stability and conversion to EFdA; settings: for half-life at 2 µM: human, plasma, pH 7.4
Description: The pooled frozen plasma was thawed in a water bath at 37° C. prior to experiment. Plasma was centrifuged at 4000 rpm for 5 min and the clots were removed if any. The pH will be adjusted to 7.4±0.1 if required.
Preparation of test compounds and positive control (propantheline bromide): 1 mM intermediate solution was prepared by diluting 10 μL of the stock solution with 90 μL MeOH; 1 mM intermediate of positive control Propantheline was prepared by diluting 10 μL of the stock solution with 90 μL ultrapure water. 100 μM dosing solution was prepared by diluting 20 μL of the intermediate solution (1 mM) with 180 μL MeOH. 98 μL of blank plasma was spiked with 2 μL of dosing solution (100 μM) to achieve 2 μM of the final concentration in duplicate and samples were incubated at 37° C. in a water bath. At each time point (0, 10, 30, 60 and 120 min), […] of stop solution (0.1% FA in MeOH containing 200 ng/mL tolbutamide and 200 ng/mL Labetalol) was added to precipitate protein and mixed thoroughly. Centrifuged sample plates at 4,000 rpm for 10 min. An aliquot of supernatant (100 μL) was transferred from each well to another plates.
Data analysis: The % remaining of test compound after incubation in plasma was calculated using following equation: % Remaining=100×(PAR at appointed incubation time/PAR at T0 time) where PAR is the peak area ratio of analyte versus internal standard (IS) (LC/MS/MS mobile phase condition: 0.1% Formic Acid in Water/0.1% Formic Acid in Acetonitrile. The appointed incubation time points are TO (0 min), Tn (n=0, 10, 30, 60, 120 min). Liver S9 Stability

[2] = Liver S9 stability and conversion to EFdA; format: in vitro ADME, human; settings: for half-life at 1 µM: human liver S9, 37° C.
Description: Intermediate solution: Dilute 5 μL of compounds or controls (7-ethoxycoumarin) from stock solution (10 mM) with 495 μL MeOH (Conc.: 100 μM, 1% DMSO, 99% MeOH). Stop solution: Cold ACN (including 100 ng/mL Tolbutamide and Labetalol as internal standard). Add 2 μL test compound or control working solution/well to all plates (T0, T5, T10, T20, T30, T60, NCF60) except matrix blank. Add 600 μL/well stop solution (cold in 4° C., including 100 ng/mL Tolbutamide/100 ng/mL Labetalol) to terminate the TO plate, then put it on ice. Dispense 840 μL/well S9 solution to 96-well plate as reservoir according to plate map. Then add 100 μL/well to every plate by Apricot. Incubate S9 solution and compound at 37° C. for about 10 min except NCF60 and TO. After adding S9 solution and 98 μLPB buffer to NCF60, incubate at 37° C. without pre-warming, start timer 1. After 60 min, add 600 μL/well stop solution to terminate the reaction. After pre-warming, dispense 760 μL/well cofactor solution to 96-well plate as reservoir according to plate map. Then add 98 μL/well to every plate by Apricot to start reaction. Incubate at 37° C., start timer 2, Add 600 μL/well stop solution (cold in 4° C., including 100 ng/mL Tolbutamide and Labetalol) to terminate the reaction. Samples are centrifuged at 4000 rpm for 20 min. While centrifuging, load 8×new 96-well plate with 300 μL HPLC water, then transfer 100 μL supernatant, mix with water for LC/MS/MS, transferred to Bioanalytical Services for LC-MS/MS analysis. Use equation of first order kinetics to calculate t1/2 and CL: Equation of first order kinetics: […]

[3] = Plasma exposures following oral administration to beagle dogs; settings: EFdA PO 5 mg/kg

SMILES	Stability in Human Plasma Formation of EFdA [1]	half-life at 2 µM [1] [min]	Stability in Human Liver S9 Formation of EFdA [2]	half-life at 1 µM [2] [min]	also measured
C#C[C@]1(COC(=O)NC(C)C)O[C@@H](n2cnc3c(N)nc(F)nc32)C[C@@H]1O [Formula 2-A, ((2R,3S,5R)-5-(6-amino-2-fluoro-9H-purin-9-yl)-2-ethynyl-3-hydroxytetrahydrofuran-2-yl)methyl isopropylcarbamate]	No	> 200	No	50 to 200	–
C#C[C@]1(CO)O[C@@H](n2cnc3c(NC(=O)OC(C)C)nc(F)nc32)C[C@@H]1O [Formula 3-A, isopropyl (9-((2R,4S,5R)-5-ethynyl-4-hydroxy-5-(hydroxymethyl)tetrahydrofuran-2-yl)-2-fluoro-9H-purin-6-yl)carbamate]	No	> 200	No	50 to 200	–
C#C[C@]1(COC(=O)OCc2oc(=O)oc2C)O[C@@H](n2cnc3c(N)nc(F)nc32)C[C@@H]1OC(=O)OCc1oc(=O)oc1C [Formula 4-C, ((2R,3S,5R)-5-(6-amino-2-fluoro-9H-purin-9-yl)-2-ethynyl-3-((((5-methyl-2-oxo-1,3-dioxol-4-yl)methoxy)carbonyl)oxy)tetrahydrofuran-2-yl)methyl ((5-methyl-2-oxo-1,3-dioxol-4-yl)methyl) carbonate]	Yes	< 50	Yes	< 50	Conversion to the target drug (EFdA) in human plasma assay [1]: converted to the target drug efficiently; Conversion to the target drug (EFdA) in liver S9 assay [2]: converted to the target drug efficiently
C#C[C@]1(COC(=O)NC)O[C@@H](n2cnc3c(N)nc(F)nc32)C[C@@H]1O [Formula 5-A, ((2R,3S,5R)-5-(6-amino-2-fluoro-9H-purin-9-yl)-2-ethynyl-3-hydroxytetrahydrofuran-2-yl)methyl methylcarbamate]	No	> 200	No	50 to 200	–
C#C[C@]1(CO)O[C@@H](n2cnc3c(NCc4oc(=O)oc4C)nc(F)nc32)C[C@@H]1O [Formula 6-A, 4-(((9-((2R,4S,5R)-5-ethynyl-4-hydroxy-5-(hydroxymethyl)tetrahydrofuran-2-yl)-2-fluoro-9H-purin-6-yl)amino)methyl)-5-methyl-1,3-dioxol-2-one]	No	< 50	Yes	< 50	Conversion to the target drug (EFdA) in liver S9 assay [2]: converted to the target drug efficiently
C#C[C@]1(COC(=O)NCCN(C)Cc2oc(=O)oc2C)O[C@@H](n2cnc3c(N)nc(F)nc32)C[C@@H]1O [Formula 7-A, ((2R,3S,5R)-5-(6-amino-2-fluoro-9H-purin-9-yl)-2-ethynyl-3-hydroxytetrahydrofuran-2-yl)methyl (2-(methyl((5-methyl-2-oxo-1,3-dioxol-4-yl)methyl)amino)ethyl)carbamate]	No	50 to 200	No	< 50	–
C#C[C@]1(CO)O[C@@H](n2cnc3c(N)nc(F)nc32)C[C@@H]1O [Formula T-1A, (2R,3S,5R)-5-(6-amino-2-fluoro-9H-purin-9-yl)-2-ethynyl-2-(hydroxymethyl)tetrahydrofuran-3-ol, reference compound]	–	–	–	–	EFdA Concentrations in Dog Plasma ([3]; 0.250 hrs, individual animals, 5 mg/kg): 333 ng/mL and 276 ng/mL; EFdA Concentrations in Dog Plasma ([3]; 0.500 hrs, individual animals, 5 mg/kg): 299 ng/mL and 280 ng/mL; EFdA Concentrations in Dog Plasma ([3]; 1.00 hrs, individual animals, 5 mg/kg): 353 ng/mL and 361 ng/mL; EFdA Concentrations in Dog Plasma ([3]; 2.00 hrs, individual animals, 5 mg/kg): 212 ng/mL and 143 ng/mL; EFdA Concentrations in Dog Plasma ([3]; 4.00 hrs, individual animals, 5 mg/kg): 12.6 ng/mL and 17.9 ng/mL and 6.30 ng/mL; EFdA Concentrations in Dog Plasma ([3]; 6.00 hrs, individual animals): BQL; EFdA Concentrations in Dog Plasma ([3]; 8.00 hrs, individual animals): BQL; EFdA Concentrations in Dog Plasma ([3]; 12.0 hrs, individual animals): BQL; EFdA Concentrations in Dog Plasma ([3]; 24.0 hrs, individual animals): BQL; concentration at 0.25 h ([3]; male, beagle, dog, in vivo, po, 5 mg/kg, EFdA Concentrations in Dog Plasma, 0.250 hrs, Mean): 355 ng/mL; concentration at 0.25 h ([3]; male, beagle, dog, in vivo, po, 5 mg/kg, EFdA Concentrations in Dog Plasma, 0.250 hrs, individual animals): 456 ng/mL; concentration at 0.5 h ([3]; male, beagle, dog, in vivo, po, 5 mg/kg, EFdA Concentrations in Dog Plasma, 0.500 hrs, Mean): 323 ng/mL; concentration at 0.5 h ([3]; male, beagle, dog, in vivo, po, 5 mg/kg, EFdA Concentrations in Dog Plasma, 0.500 hrs, individual animals): 391 ng/mL; concentration at 1 h ([3]; male, beagle, dog, in vivo, po, 5 mg/kg, EFdA Concentrations in Dog Plasma, 1.00 hrs, Mean): 361 ng/mL; concentration at 1 h ([3]; male, beagle, dog, in vivo, po, 5 mg/kg, EFdA Concentrations in Dog Plasma, 1.00 hrs, individual animals): 369 ng/mL; concentration at 2 h ([3]; male, beagle, dog, in vivo, po, 5 mg/kg, EFdA Concentrations in Dog Plasma, 2.00 hrs, Mean): 189 ng/mL; concentration at 2 h ([3]; male, beagle, dog, in vivo, po, 5 mg/kg, EFdA Concentrations in Dog Plasma, 2.00 hrs, individual animals): 211 ng/mL; concentration at 4 h ([3]; male, beagle, dog, in vivo, po, 5 mg/kg, EFdA Concentrations in Dog Plasma, 4.00 hrs, Mean): 12.3 ng/mL
